From US7897645B2, “Herpesvirus-derived therapeutic agent for pain” (Taiho Pharmaceutical Co., Ltd., priority 2005, dated 2011)

Legend:
[1] = test system: post herpetic neuralgia; experiment: Clinical course of zoster-associated pain in patients, in words (case reports); type: in vivo, human; conditions: for effect on continued pain after herpes zoster: Example 6: person, diclofenac sodium suppository 1 to 2 times per day in addition to morphine hydrochloride 30 mg/day
Experimental: A person. They were diagnosed as right face herpes zoster. Anti-virus agent was administered by drops for 5 days. Since dull pain remained at the same region thereafter, oral administration of mecobalamin of 1500 μg/day and sodium loxoprofen of 180 mg/day was started after the consultation. After administration for 2 weeks, VAS evaluation of pain dropped to 1 point, and the administration of sodium loxoprofen stopped with administration of mecobalamin maintained. Mecobalamin was further administered, and although VAS evaluations were 1 to 3 points for about 3 months, sense of incongruity and spasmodic sharp pain of neuralgia after herpes zoster continued, and therefore oral administration of a 100 mg capsule of IPD 3 times per day was started in the same manner as in Example 1 with administration of mecobalamin maintained. After 1 week of the administration of suplatast tosylate, the post herpetic neuralgia disappeared, and VAS evaluation became 0 point. […] Then administration was stopped.
A person. Painful rashes appeared from right chest to the back, and they were diagnosed as herpes zoster. Anti-virus agent was administered by dropping for 1 week, but the pain continued. Diclofenac sodium suppository was used by 1 to 2 times per day in addition to administration of morphine hydrochloride 30 mg/day, but both of them were no effect, and further nerve block treatment was also no effect. After 6 months of the consultation (7 points at VAS evaluation), oral administration of a 100 mg capsule of IPD 3 times per day was started in the same manner as in Example 1, the post herpetic neuralgia decreased to 5 points at VAS evaluation by the treatment for 3 weeks, although the administration of morphine was invalid.

[2] = test system: post herpetic neuralgia; experiment: Visual Analogue Scale (VAS) evaluation of pain in herpes zoster / post herpetic neuralgia patients (case reports); type: in vivo, human; conditions: for VAS evaluation of pain: mecobalamin 1500 μg/day and sodium loxoprofen 180 mg/day oral together, after 2 weeks
Experimental: The present invention will be described below in more detail with reference to examples and test examples. However, the invention is not limited by these examples. The sharp pain in examples was evaluated by the Visual Analogue Scale evaluation (hereinafter abbreviated to “VAS evaluation”), in which the grade of pain of each patient is expressed by himself or herself on a 100 mm straight line. In VAS evaluation, the highest score is 10 points (100 mm), and the point becomes smaller according to the decrease of the pain. (refer to Anesth Analog 1993, 77, 1041-1047 etc.)

## CCOCC(O)COc1ccc(NC(=O)CC[S+](C)C)cc1.Cc1ccc(S(=O)(=O)[O-])cc1 (racemic) [suplatast tosylate, (±)-[2-[4-(3-ethoxy-2-hydroxypropoxy)phenylcarbamoyl]ethyl]dimethylsulfonium p-toluenesulfonate]
[1]; Example 3: person, oral suplatast tosylate and mecobalamin continued for further about 1 month
  symptoms on continued administration: no symptom was observed
[2]; Example 1: person, PHN, 100 mg capsule of IPD 3 times per day oral, after 3 days, 5 points before
  VAS evaluation: 0 point
[2]; Example 2: person, PHN, 100 mg capsule of IPD 3 times per day oral, after 1.5 months, 7 points before
  VAS evaluation: 2 points
[2]; Example 3: person, PHN, 100 mg capsule of IPD 3 times per day oral, mecobalamin maintained, after 1 week, 1 to 3 points before
  VAS evaluation: 0 point
[2]; Example 4: person, PHN, 100 mg capsule of IPD 3 times per day oral, after 1 month, 0.5 to 1 point before
  VAS evaluation: 0.1 to 0.2 point
[2]; Example 5: person, PHN, 100 mg capsule of IPD 3 times per day oral, by continuation of the administration
  VAS evaluation: 0.7 point
[2]; Example 5: person, PHN, 100 mg capsule of IPD 3 times per day oral, first decrease, 5 points before
  VAS evaluation: 1 point
[2]; Example 6: person, PHN, 100 mg capsule of IPD 3 times per day oral, treatment for 3 weeks, 7 points before
  VAS evaluation: 5 points

## O=C(O)Cc1ccccc1Nc1c(Cl)cccc1Cl [Diclofenac sodium]
[1]
  effect on continued pain after herpes zoster: no effect

## C/C1=C2/[N-][C@H]([C@H](CC(N)=O)[C@@]2(C)CCC(=O)NC[C@@H](C)OP(=O)([O-])O[C@H]2[C@@H](O)[C@@H](n3cnc4cc(C)c(C)cc43)O[C@@H]2CO)[C@]2(C)N=C(/C(C)=C3N=C(/C=C4N=C1[C@@H](CCC(N)=O)C\4(C)C)[C@@H](CCC(N)=O)[C@]\3(C)CC(N)=O)[C@@H](CCC(N)=O)[C@]2(C)CC(N)=O.[CH3-].[Co+3] [mecobalamin]
[2]; Example 1: person, mecobalamin 1500 μg/day oral continued, neuralgia not changed for 3 years after consultation
  VAS evaluation: 5 points
[2]; Example 2: person, mecobalamin 1500 μg/day continued, PHN did not change for 8 months after consultation
  VAS evaluation: 7 points
[2]; Example 3: person
  VAS evaluation of pain: 1 point
[2]; Example 3: person, mecobalamin alone further administered, for about 3 months
  VAS evaluations: 1 to 3 points
[2]; Example 4: person, mecobalamin 1500 μg/day for 1.5 months, 5 points before
  VAS evaluation: 0.5 to 1 point

## CN1CC[C@]23c4c5ccc(O)c4O[C@H]2[C@@H](O)C=C[C@H]3[C@H]1C5.Cl [morphine hydrochloride]
[1]
  effect on continued pain after herpes zoster: no effect

## CC(C(=O)[O-])c1ccc(CC2CCCC2=O)cc1.[Na+] (stereo not shown) [sodium loxoprofen]
[2]; Example 3: person
  VAS evaluation of pain: 1 point
